Data from a melting point compilation (Tetko et al.; mined from patent text by program, amines drawn as free bases though some values may be those of a salt).

SMILES	melting point [°C]
CN(C)c1cc(CO)cc(N(C)C)c1N1CCCCC1	90 to 92
NCCCc1ccc(CCCN)nc1	116 to 119
COC(=O)/C=C/c1ccc(NC(=O)CCCBr)nc1	156 to 173
COc1ccc2c(Cc3c(Cl)cncc3Cl)nnc(N3CCOCC3)c2c1	179 to 180
CCC1CCCCN(C(=O)C2Cc3ccccc3N2c2ccc(=O)n(C)n2)C1 (centres undefined)	90 to 95
O=C(O)c1ccc(-c2csc(-c3cccnc3)n2)cc1	> 300
CCNC(=S)NCc1ccc(/C=C/C(c2cc(Cl)c(Cl)c(Cl)c2)C(F)(F)F)cc1Cl (centres undefined)	88 to 91
CC1CCN(c2c(F)c(N)c3c(=O)c(C(=O)O)cn(C4CC4)c3c2F)CC(C)(C)C1 (centres undefined)	148 to 150
CC(C)SC(C)(C)C(=O)O	51.5 to 52.5
O=C(CCc1ccccc1)N[C@H](Cc1ccc(Oc2ccccc2)cc1)[C@@H](O)c1ccc(F)cc1 (racemic)	108 to 110
O=c1oc(-c2ccccc2)cc(O)c1Sc1c(O)cc(-c2ccccc2)oc1=O	> 240
COc1ccc(-n2nc(Sc3cc(OC)cc(OC)c3)c(C)c(C#N)c2=O)cc1	181 to 184
COc1cc(Cc2c(N)nc(N)nc2Cl)cc(OC)c1N	222 to 224
O=C(Nc1cccc2c1C(=O)c1c-2n[nH]c1-c1ccc(C(=O)N2CCN(c3ccccn3)CC2)s1)NN1CCOCC1	201 to 202
Cn1c(C(N)=O)c(-c2ccc(F)cc2)c2cccnc2c1=O	329 to 330
OCC1(c2ccccc2)CCN(CCC(c2ccccc2)(c2ccccc2)c2ccccn2)CC1	148 to 151
CC(C)OC(=Cn1cnnn1)c1ccc(Cl)cc1Cl	82
NC(=O)[C@@H]1[C@H](Nc2c(Br)cnc3[nH]c(-c4ccoc4)nc23)[C@H]2C=C[C@@H]1C2	231 to 232
CCn1c(=O)c2[nH]c(/C=C/c3ccc(Br)cc3)nc2n(CC)c1=O	> 270
OCCCCCCCCCCCCCCCCc1c[nH]c2ccccc12	79 to 80
CCOC(=O)c1cccc2c(=O)cc(-c3cccc(OCc4ccc5ccccc5n4)c3)oc12	> 300
Cc1cc2c(S(C)(=O)=O)nc(CCC(F)(F)F)nc2s1	60 to 61
O=C(Oc1ccc(Cl)cc1)c1cccc(Cl)c1	72
CC1CCCC=C1c1ccc(C(=O)O)cc1 (centres undefined)	146 to 147
O=C1NC(=S)SC1=Cc1ccc2c(c1)OCO2	194 to 195

SMILES	melting point [°C]
COC(C)=Nc1cccc(O)n1	128 to 129
CCn1c(=O)n(Cc2ccccc2)c(=O)c2cc(C(=O)OCc3ccccc3)sc21	147 to 148
C#Cc1cnc2ccc(OC(SC)C(=O)NC(C)(C#C)CO)cc2c1 (centres undefined)	149 to 150
CSc1ccc(C(=O)Nc2ccc3ccc(Cl)nc3n2)cc1	199
CCOC(=O)c1c(-c2ccc(OC)c(OC)c2)c2cc(C)ccc2[nH]c1=O	220 to 221
COc1ccccc1N1CCN(Cc2ccccc2)CC1=O	109 to 111
CN(C(=O)c1ccc2nonc2c1)C1CCC(=NO)CC1 (centres undefined)	197 to 198
CC1(C)CC(O)CC(C)(C)N1OCc1ccccc1	86 to 87
c1ccc(-c2nc3ccccc3o2)nc1	105 to 107
CCC1(c2ccc(Cl)cc2)OCc2c1cnc(C)c2O (centres undefined)	215
Cc1ccc2cccc(OCc3c(Cl)ccc(C(=O)NCCN4C(=O)c5ccccc5C4=O)c3Cl)c2n1	210 to 212
Cc1cccc2cc3c(=O)n(CC(F)(F)F)cc(C(=O)NCCN(C)C)c3nc12	227 to 230
O=C(O)Cc1ccc2c(c1)[nH]c1ccccc12	150 to 152
COC(=O)COc1ccc(NC(=O)CCCCCO)cc1	87.5 to 90.4
CCCCCCCCCCCCCCCCOCC(CNS(=O)(=O)CCCCl)COC (centres undefined)	44 to 46.5
Cc1cccc2c1N(C(=O)OC(C)(C)C)CC(=O)N2	175 to 177
CS(=O)(=O)c1nc(N)c2ncn(C3CCCCC3)c2n1	272 to 274
COCSCCNC(=C[N+](=O)[O-])NCC(O)c1ccccc1 (centres undefined)	107 to 110
O=C(Nc1ccc(Cl)cc1)NC(c1ccccc1)C(O)c1ccccc1 (centres undefined)	198
COc1ccc(C2CCCCC2)cc1-c1csc(NC(=O)N2CCN(C[C@@H]3CCCN(CCC(=O)O)C3)CC2)n1	144
CCOP(=O)(CC(=O)N1c2ccccc2NC(=O)c2ccccc21)OCC	195 to 197
Cc1c(-c2ccccc2)oc2c(C(=O)NCCCCl)cccc2c1=O	193 to 194
CCN(CC)c1ccc(-c2cc(-c3ccc(C(=O)O)cc3)ccc2OCC(C)O)cc1C(C)(C)C (centres undefined)	193
NS(=O)(=O)c1nnc(NC(=O)c2cnn3c(C(F)F)cc(-c4ccc(C(F)(F)F)cc4)nc23)s1	284
